Tests used:
[1] = system: TA100, TA98, TA 102, TA 1537 and TA 1535; test: AMES test, overall conclusion over all strains; type: cell-based, Salmonella typhimuriu; details: absence and presence of S-9
Description: Gene mutation can be evaluated in vitro, using amino-acid requiring strains of Salmonella typhimuriu. Different protocols for this test have been published (Ames B. N. et al Mutation Res. 1975, 31, 347-364, and Gatehouse D. et al Mutation Res. 1994, 312, 217-233). The principle of this bacterial reverse mutation test is that it detects mutations which revert mutations present in the test strains and restore the functional capability of the bacteria to synthesise an essential amino acid. The revertant bacteria are detected by their ability to grow in the absence of the amino acid required by the parent test strain.
In the present example, the guidelines OECD TG 471 (i.e. AMES Test) was used to detect gene mutation at different doses in the TA100, TA98, TA 102, TA 1537 and TA 1535.
Treatments covering a broad range of concentrations, separated by narrow intervals, were performed both in the absence and presence of metabolic activation (S-9) from Aroclor 1254 induced animals. The compound was formulated in anhydrous analytical grade dimethylsulphoxide (DMSO) and the highest concentration used in was determined following a preliminary cytotoxicity Range-Finder Experiment.

[2] = system: Male obese Zucker diabetic fatty (ZDF fa/fa) rats; test: Treatment of prediabetic ZDF rats by IP injection (plasma glucose, serum triglycerides); type: in vivo, rat; details: IP injection 10 mg/kg once daily for three weeks, PEG 300
Procedure: Male obese Zucker diabetic fatty (ZDF fa/fa) rats were used to test the in vivo activity of compound 1. This animal model develops hyperglycemia and insulin resistance.
In this example, six-week-old male prediabetic ZDF rats (Charles River) are provided rat chow and water ad libidum. The obese rats are divided into a control and a treated groups (n=6 per subgroup).
The compound 1 is dissolved in PEG 300 and administrated by IP injection at a dose of 10 mg/kg once daily for a period of three weeks.
Glucose plasma level can be measured by the commercially available kit using the glucose oxydase method (Sigma Chemical Co.).
(§1) Assay of serum triglycerides may be performed enzymatically using a commercially available kit. In summary, the triglycerides are treated with a lipase in order to generate glycerol and fatty acids. In the presence of ATP, the glycerol is transformed by […] into glycerol-3-phosphate. The glycerol-3-phosphate is subsequently transformed into dihydroxyacetone in generating oxygenated water (H202) which may be detected by formation of quinoneimine in the presence of parachlorophenol, amino-4-antipyrin and peroxydase. The intensity of the quinoneimine coloration is subsequently measured at 505 nm. This coloration is proportional to the quantity of triglycerides present in the sample.

ZDF rats = test: Treatment of prediabetic ZDF rats by oral administration (plasma triglycerides); type: in vivo, rat
Procedure: as §1
Following the same experiments as in example 2.2, ZDF rats were used to evaluate the effect of the compound on the glycaemia and the plasma level of triglycerides using the experimental protocol described in example 2.2.
The compound was dissolved in PEG 300 and orally administrated to a series of 8 rats for 2 weeks.

Compound: COc1cc(O)c(/C=N/NC(=O)c2ccc3nccn3c2)c(OC)c1 [Compound 1, [1-(2-hydroxy-4,6-dimethoxy-phenyl)-methylidene]-imidazo[1,2-a]pyridine-6-carbohydrazide]
- mutagenic activity in AMES test [1]: does not exhibit mutagenic activity
- circulating triglycerides [2]: significantly reduce
- plasma level of glucose [2]: significantly reduces
- circulating triglycerides (ZDF rats; administered orally, 2 weeks): significantly reduce
- Reduction of plasma triglycerides (ZDF rats; orally administrated for 2 weeks, versus untreated rats): 37.4%
- Triglycerides, plasma level (ZDF rats; orally administrated in PEG 300 for 2 weeks, ZDF rats (n = 8)): 1.02 ± 0.1 mM

From patent US20120277436A1, “PHENYLHYDRAZONE DERIVATIVES AND THEIR USE AS PHARMACEUTICALS” (priority 2009, published 2012)
